Converted amounts (≈) assume the structure as drawn.
Tests used:
Candida albicans = test: Antifungal activity against Candida albicans NCIM 3557 after 48 hr by agar streak dilution method; format: functional; details: NCIM 3557, 48 h
[1] = Acute toxicity in po dosed Mus musculus (mouse); format: organism-based; details: in vivo

SMILES	MIC (Candida albicans)	LD50 [1]
CN(Cc1cc2ccccc2o1)Cc1cccc2cccnc12	> 100 µg/mL	
CN(Cc1cccc2cccnc12)Cc1cccc2cccnc12	4 µg/mL (≈ 12.8 µM)	700 mg/kg
CN(Cc1ccc2ccccc2c1)Cc1cccc2cccnc12	8 µg/mL (≈ 25.6 µM)	> 2000 mg/kg
CN(Cc1ccc(-c2ccccc2C#N)cc1)Cc1cccc2cccnc12	> 100 µg/mL	
CN(Cc1ccc([N+](=O)[O-])cc1)Cc1cccc2cccnc12	25 µg/mL (≈ 81.3 µM)	> 2000 mg/kg
CN(Cc1ccc(Cl)cc1)Cc1cccc2cccnc12	75 µg/mL (≈ 253 µM)	
CN(Cc1nc2cc(Cl)ccc2[nH]1)Cc1cccc2cccnc12	10 µg/mL (≈ 29.7 µM)	> 2000 mg/kg
CN(Cc1nc2cc([N+](=O)[O-])ccc2[nH]1)Cc1cccc2cccnc12	25 µg/mL (≈ 72 µM)	> 2000 mg/kg
Cc1ccc2[nH]c(CN(C)Cc3cccc4cccnc34)nc2c1	> 100 µg/mL	
CN(Cc1nc2ccccc2[nH]1)Cc1cccc2cccnc12	40 µg/mL (≈ 132 µM)	
